Measured values: PubChem BioAssay (NCI)
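Cells were grown in 96-well plates and exposed to each compound for 48 hours at five concentrations; endpoints were interpolated linearly between bracketing concentrations, or set to the highest concentration if not reached. The concentration for full growth arrest is given as TGI.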

Tests used:
Assay in all cases: NCI tumour cell line growth inhibition, 48 h
786-0 renal = test system: 786-0 renal
A498 renal = test system: A498 renal
A549 NSCLC = test system: A549 NSCLC
ACHN renal = test system: ACHN renal
BT-549 breast = test system: BT-549 breast
CAKI-1 renal = test system: CAKI-1 renal
CCRF-CEM leukemia = test system: CCRF-CEM leukemia
COLO 205 colon = test system: COLO 205 colon
DU-145 prostate = test system: DU-145 prostate
EKVX NSCLC = test system: EKVX NSCLC
HCT-116 colon = test system: HCT-116 colon
HCT-15 colon = test system: HCT-15 colon
HL-60(TB) leukemia = test system: HL-60(TB) leukemia
HOP-62 NSCLC = test system: HOP-62 NSCLC
HOP-92 NSCLC = test system: HOP-92 NSCLC
HS 578T breast = test system: HS 578T breast
HT29 colon = test system: HT29 colon
IGROV1 ovarian = test system: IGROV1 ovarian
K-562 leukemia = test system: K-562 leukemia
KM12 colon = test system: KM12 colon
LOX IMVI melanoma = test system: LOX IMVI melanoma
M14 melanoma = test system: M14 melanoma
MALME-3M melanoma = test system: MALME-3M melanoma
MCF7 breast = test system: MCF7 breast
MDA-MB-231 breast = test system: MDA-MB-231 breast
MDA-MB-435 = test system: MDA-MB-435
MDA-N = test system: MDA-N
MOLT-4 leukemia = test system: MOLT-4 leukemia
NCI-H226 lung = test system: NCI-H226 lung
NCI-H23 lung = test system: NCI-H23 lung
NCI-H460 lung = test system: NCI-H460 lung
NCI/ADR-RES ovarian = test system: NCI/ADR-RES ovarian
OVCAR-3 ovarian = test system: OVCAR-3 ovarian
OVCAR-4 ovarian = test system: OVCAR-4 ovarian
OVCAR-5 ovarian = test system: OVCAR-5 ovarian
OVCAR-8 ovarian = test system: OVCAR-8 ovarian
PC-3 prostate = test system: PC-3 prostate
RPMI-8226 leukemia = test system: RPMI-8226 leukemia
RXF 393 renal = test system: RXF 393 renal
SF-268 CNS = test system: SF-268 CNS
SF-295 CNS = test system: SF-295 CNS
SF-539 CNS = test system: SF-539 CNS
SK-MEL-2 melanoma = test system: SK-MEL-2 melanoma
SK-MEL-28 melanoma = test system: SK-MEL-28 melanoma
SK-MEL-5 melanoma = test system: SK-MEL-5 melanoma
SK-OV-3 ovarian = test system: SK-OV-3 ovarian
SN12C renal = test system: SN12C renal
SNB-19 CNS = test system: SNB-19 CNS
SNB-75 CNS = test system: SNB-75 CNS
SW-620 colon = test system: SW-620 colon
T-47D breast = test system: T-47D breast
TK-10 renal = test system: TK-10 renal
U251 CNS = test system: U251 CNS
UACC-62 melanoma = test system: UACC-62 melanoma
UO-31 renal = test system: UO-31 renal
HCC-2998 colon = test system: HCC-2998 colon
NCI-H522 lung = test system: NCI-H522 lung
UACC-257 melanoma = test system: UACC-257 melanoma

COC(=O)Nc1nc2ccc(NC(=O)c3cccs3)cc2[nH]1
TGI (786-0 renal): > 100 µM
TGI (A498 renal): 88.7 µM
TGI (A549 NSCLC): > 100 µM
TGI (ACHN renal): > 100 µM
TGI (BT-549 breast): > 100 µM
TGI (CAKI-1 renal): > 100 µM
TGI (CCRF-CEM leukemia): > 100 µM
TGI (COLO 205 colon): > 100 µM
TGI (DU-145 prostate): > 100 µM
TGI (EKVX NSCLC): > 100 µM
TGI (HCT-116 colon): > 100 µM
TGI (HCT-15 colon): > 100 µM
TGI (HL-60(TB) leukemia): > 100 µM
TGI (HOP-62 NSCLC): > 100 µM
TGI (HOP-92 NSCLC): 40.7 µM
TGI (HS 578T breast): 44.7 µM
TGI (HT29 colon): > 100 µM
TGI (IGROV1 ovarian): 14.4 µM
TGI (K-562 leukemia): > 100 µM
TGI (KM12 colon): > 100 µM
TGI (LOX IMVI melanoma): > 100 µM
TGI (M14 melanoma): > 100 µM
TGI (MALME-3M melanoma): 99.5 µM
TGI (MCF7 breast): > 100 µM
TGI (MDA-MB-231 breast): > 100 µM
TGI (MDA-MB-435): 39.4 µM
TGI (MDA-N): 36.7 µM
TGI (MOLT-4 leukemia): > 100 µM
TGI (NCI-H226 lung): > 100 µM
TGI (NCI-H23 lung): > 100 µM
TGI (NCI-H460 lung): > 100 µM
TGI (NCI/ADR-RES ovarian): 55.4 µM
TGI (OVCAR-3 ovarian): 47.3 µM
TGI (OVCAR-4 ovarian): > 100 µM
TGI (OVCAR-5 ovarian): > 100 µM
TGI (OVCAR-8 ovarian): > 100 µM
TGI (PC-3 prostate): > 100 µM
TGI (RPMI-8226 leukemia): 46.4 µM
TGI (RXF 393 renal): 86.7 µM
TGI (SF-268 CNS): > 100 µM
TGI (SF-295 CNS): > 100 µM
TGI (SF-539 CNS): 60.2 µM
TGI (SK-MEL-2 melanoma): > 100 µM
TGI (SK-MEL-28 melanoma): > 100 µM
TGI (SK-MEL-5 melanoma): 82.5 µM
TGI (SK-OV-3 ovarian): > 100 µM
TGI (SN12C renal): > 100 µM
TGI (SNB-19 CNS): > 100 µM
TGI (SNB-75 CNS): 65 µM
TGI (SW-620 colon): > 100 µM
TGI (T-47D breast): 88.1 µM
TGI (TK-10 renal): > 100 µM
TGI (U251 CNS): > 100 µM
TGI (UACC-62 melanoma): > 100 µM
TGI (UO-31 renal): 36.2 µM

CCCCCCCCCCCCCCCCOCC(CCl)OP(=O)(O)OP(=O)(O)OCC1OC(n2ccc(N)nc2=O)C(O)C1O (configuration not stated)
TGI (786-0 renal): > 100 µM
TGI (A498 renal): > 100 µM
TGI (A549 NSCLC): > 100 µM
TGI (ACHN renal): > 100 µM
TGI (BT-549 breast): > 100 µM
TGI (CAKI-1 renal): > 100 µM
TGI (CCRF-CEM leukemia): > 100 µM
TGI (COLO 205 colon): > 100 µM
TGI (EKVX NSCLC): > 100 µM
TGI (HCC-2998 colon): > 100 µM
TGI (HCT-116 colon): > 100 µM
TGI (HCT-15 colon): > 100 µM
TGI (HL-60(TB) leukemia): > 100 µM
TGI (HOP-62 NSCLC): > 100 µM
TGI (HOP-92 NSCLC): > 100 µM
TGI (HS 578T breast): > 100 µM
TGI (HT29 colon): > 100 µM
TGI (IGROV1 ovarian): > 100 µM
TGI (K-562 leukemia): > 100 µM
TGI (KM12 colon): > 100 µM
TGI (LOX IMVI melanoma): > 100 µM
TGI (M14 melanoma): > 100 µM
TGI (MALME-3M melanoma): > 100 µM
TGI (MCF7 breast): > 100 µM
TGI (MDA-MB-231 breast): > 100 µM
TGI (MDA-MB-435): > 100 µM
TGI (MDA-N): > 100 µM
TGI (MOLT-4 leukemia): > 100 µM
TGI (NCI-H226 lung): > 100 µM
TGI (NCI-H23 lung): > 100 µM
TGI (NCI-H460 lung): > 100 µM
TGI (NCI-H522 lung): > 100 µM
TGI (NCI/ADR-RES ovarian): > 100 µM
TGI (OVCAR-3 ovarian): > 100 µM
TGI (OVCAR-4 ovarian): > 100 µM
TGI (OVCAR-5 ovarian): > 100 µM
TGI (OVCAR-8 ovarian): > 100 µM
TGI (PC-3 prostate): > 100 µM
TGI (RPMI-8226 leukemia): > 100 µM
TGI (RXF 393 renal): > 100 µM
TGI (SF-268 CNS): > 100 µM
TGI (SF-295 CNS): > 100 µM
TGI (SF-539 CNS): > 100 µM
TGI (SK-MEL-2 melanoma): > 100 µM
TGI (SK-MEL-28 melanoma): > 100 µM
TGI (SK-MEL-5 melanoma): > 100 µM
TGI (SK-OV-3 ovarian): > 100 µM
TGI (SN12C renal): > 100 µM
TGI (SNB-19 CNS): > 100 µM
TGI (SNB-75 CNS): 22 µM
TGI (SW-620 colon): > 100 µM
TGI (T-47D breast): > 100 µM
TGI (TK-10 renal): > 100 µM
TGI (U251 CNS): > 100 µM
TGI (UACC-257 melanoma): > 100 µM
TGI (UACC-62 melanoma): > 100 µM
TGI (UO-31 renal): > 100 µM
